Columns and labels:
cocklebur = assay: Test E preemergence; assay type: in vivo, Xanthium strumarium; details: scale 0 to 100 (0 no effect, 100 complete control)
Method in brief: (§1)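 Compound in a non-phytotoxic solvent mixture with surfactant was applied preemergence to seeds in silt loam soil, or postemergence to plants 2 to 18 cm tall grown in peat-based potting medium. Plants were kept in a greenhouse for 14 to 21 days, then rated visually against untreated controls on a 0 (no effect) to 100 (complete control) scale.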

sandbur = assay: Test E postemergence; assay type: in vivo, Cenchrus echinatus
Method in brief: as §1

fall panicum = assay: Test E postemergence; assay type: in vivo, Panicum dichotomiflorum
Method in brief: as §1

wild mustard = assay: Test D postemergence; assay type: in vivo, Sinapis arvensis; details: Brassica, post-emergence
Method in brief: (§2)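 Greenhouse herbicide screen. Sowing into silt loam for preemergence application; foliar application to 2–18 cm seedlings in potting mix for postemergence. 0–100 visual control rating after 7–21 d.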

green foxtail [1] = assay: Test D preemergence; assay type: in vivo, Setaria viridis; details: Setaria viridis, pre-emergence
Method in brief: as §2

lambsquarters = assay: Test D postemergence; assay type: in vivo, Chenopodium album; details: Chenopodium album, post-emergence
Method in brief: as §2

green foxtail [2] = assay: Test D postemergence; assay type: in vivo, Setaria viridis; details: Setaria viridis, post-emergence
Method in brief: as §2

bromegrass, downy = assay: Test D postemergence; assay type: in vivo, Bromus tectorum; details: Bromus tectorum, post-emergence, Postemergence, scale 0 to 100 (0 no effect, 100 complete control), read-out: Plant response rating, Bromegrass, Downy
Method in brief: as §2

pigweed = assay: Test D postemergence; assay type: in vivo, Amaranthus retroflexus; details: Amaranthus retroflexus, post-emergence
Method in brief: as §2

wild radish = assay: Test D postemergence; assay type: in vivo, Raphanus raphanistrum; details: Raphanus raphanistrum, post-emergence
Method in brief: as §2

windgrass = assay: Test D postemergence; assay type: in vivo, Apera spica-venti; details: Apera spica-venti, post-emergence
Method in brief: as §2

chamomile = assay: Test D preemergence; assay type: in vivo, Matricaria inodora; details: Tripleurospermum inodorum, pre-emergence
Method in brief: as §2

oilseed rape = assay: Test D preemergence; assay type: in vivo, Brassica napus; details: Brassica napus, pre-emergence
Method in brief: as §2

[3] = Postemergence, 31 g ai/ha, scale 0 to 100
[4] = Postemergence, 62 g ai/ha, scale 0 to 100
[5] = Postemergence, 125 g ai/ha, scale 0 to 100
[6] = Postemergence, 250 g ai/ha, scale 0 to 100
[7] = postemergence, 16 g ai/ha, scale 0 to 100, 0 no effect, 100 complete control

FC(F)(F)c1cnn(-c2ccccc2Oc2ncc(Cl)cn2)c1 [Compound 16]
Cocklebur plant response rating (cocklebur; 16 g ai/ha): 0
Plant response rating, Sandbur (sandbur; [3]): 0
Plant response rating, Sandbur (sandbur; [4]): 0
Plant response rating, Sandbur (sandbur; [5]): 0
Plant response rating, Sandbur (sandbur; [6]): 0
Plant response rating, Sandbur (sandbur; [7]): 0
Plant response rating, Panicum, Fall (fall panicum; [3]): 0
Plant response rating, Panicum, Fall (fall panicum; [4]): 10
Plant response rating, Panicum, Fall (fall panicum; [5]): 20
Plant response rating, Panicum, Fall (fall panicum; [6]): 25
Plant response rating, Panicum, Fall (fall panicum; [7]): 0

FC(F)(F)c1cnn(-c2ccccc2Oc2ncc(Br)cn2)c1 [Compound 18, 5-bromo-2-[2-[4-(trifluoromethyl)-1H-pyrazol-1-yl]phenoxy]pyrimidine]
pest or weed control at 16 g/ha (wild mustard; 16 g ai/ha, scale 0-100, read-out: Plant response rating, Mustard, Wild): 60%
pest or weed control at 31 g/ha (wild mustard; 31 g ai/ha, scale 0 to 100 (0 no effect, 100 complete control), read-out: Plant response rating, Mustard, Wild): 90%
pest or weed control at 62 g/ha (wild mustard; 62 g ai/ha, scale 0 to 100 (0 no effect, 100 complete control), read-out: Plant response rating, Mustard, Wild): 70%
pest or weed control at 125 g/ha (wild mustard; 125 g ai/ha, scale 0 to 100 (0 no effect, 100 complete control), read-out: Plant response rating, Mustard, Wild): 80%
pest or weed control at 250 g/ha (wild mustard; 250 g ai/ha, scale 0 to 100 (0 no effect, 100 complete control), read-out: Plant response rating, Mustard, Wild): 100%
pest or weed control at 16 g/ha (green foxtail [1]; 16 g ai/ha, scale 0 (no effect) to 100 (complete control), read-out: Plant response rating, Foxtail, Green): 5%
pest or weed control at 31 g/ha (green foxtail [1]; 31 g ai/ha, scale 0-100, read-out: Plant response rating, Foxtail, Green): 15%
pest or weed control at 62 g/ha (green foxtail [1]; 62 g ai/ha, scale 0-100, read-out: Plant response rating, Foxtail, Green): 50%
pest or weed control at 125 g/ha (green foxtail [1]; 125 g ai/ha, scale 0-100, read-out: Plant response rating, Foxtail, Green): 95%
pest or weed control at 250 g/ha (green foxtail [1]; 250 g ai/ha, scale 0-100, read-out: Plant response rating, Foxtail, Green): 100%
pest or weed control at 16 g/ha (lambsquarters; 16 g ai/ha, scale 0-100, read-out: Plant response rating, Lambsquarters): 15%
pest or weed control at 31 g/ha (lambsquarters; 31 g ai/ha, scale 0 to 100 (0 no effect, 100 complete control), read-out: Plant response rating, Lambsquarters): 50%
pest or weed control at 62 g/ha (lambsquarters; 62 g ai/ha, scale 0 to 100 (0 no effect, 100 complete control), read-out: Plant response rating, Lambsquarters): 90%
pest or weed control at 125 g/ha (lambsquarters; 125 g ai/ha, scale 0 to 100 (0 no effect, 100 complete control), read-out: Plant response rating, Lambsquarters): 95%
pest or weed control at 250 g/ha (lambsquarters; 250 g ai/ha, scale 0 to 100 (0 no effect, 100 complete control), read-out: Plant response rating, Lambsquarters): 95%
pest or weed control at 16 g/ha (green foxtail [2]; 16 g ai/ha, scale 0-100, read-out: Plant response rating, Foxtail, Green): 10%
pest or weed control at 31 g/ha (green foxtail [2]; 31 g ai/ha, scale 0 to 100 (0 no effect, 100 complete control), read-out: Plant response rating, Foxtail, Green): 10%
pest or weed control at 62 g/ha (green foxtail [2]; 62 g ai/ha, scale 0 to 100 (0 no effect, 100 complete control), read-out: Plant response rating, Foxtail, Green): 15%
pest or weed control at 125 g/ha (green foxtail [2]; 125 g ai/ha, scale 0 to 100 (0 no effect, 100 complete control), read-out: Plant response rating, Foxtail, Green): 20%
pest or weed control at 250 g/ha (green foxtail [2]; 250 g ai/ha, scale 0 to 100 (0 no effect, 100 complete control), read-out: Plant response rating, Foxtail, Green): 25%
pest or weed control at 16 g/ha (bromegrass, downy; 16 g ai/ha): 15%
pest or weed control at 31 g/ha (bromegrass, downy; 31 g ai/ha): 15%
pest or weed control at 62 g/ha (bromegrass, downy; 62 g ai/ha): 15%
pest or weed control at 125 g/ha (bromegrass, downy; 125 g ai/ha): 20%
pest or weed control at 250 g/ha (bromegrass, downy; 250 g ai/ha): 15%
Cocklebur plant response rating (cocklebur; 62 g ai/ha): 0
pest or weed control at 16 g/ha (pigweed; 16 g ai/ha, scale 0-100, read-out: Plant response rating, Pigweed): 65%
pest or weed control at 31 g/ha (pigweed; 31 g ai/ha, scale 0 to 100 (0 no effect, 100 complete control), read-out: Plant response rating, Pigweed): 75%
pest or weed control at 62 g/ha (pigweed; 62 g ai/ha, scale 0 to 100 (0 no effect, 100 complete control), read-out: Plant response rating, Pigweed): 75%
pest or weed control at 125 g/ha (pigweed; 125 g ai/ha, scale 0 to 100 (0 no effect, 100 complete control), read-out: Plant response rating, Pigweed): 95%
pest or weed control at 250 g/ha (pigweed; 250 g ai/ha, scale 0 to 100 (0 no effect, 100 complete control), read-out: Plant response rating, Pigweed): 95%
pest or weed control at 16 g/ha (wild radish; 16 g ai/ha, scale 0-100, read-out: Plant response rating, Radish, Wild): 95%
pest or weed control at 31 g/ha (wild radish; 31 g ai/ha, scale 0 to 100 (0 no effect, 100 complete control), read-out: Plant response rating, Radish, Wild): 90%
pest or weed control at 62 g/ha (wild radish; 62 g ai/ha, scale 0 to 100 (0 no effect, 100 complete control), read-out: Plant response rating, Radish, Wild): 100%
pest or weed control at 125 g/ha (wild radish; 125 g ai/ha, scale 0 to 100 (0 no effect, 100 complete control), read-out: Plant response rating, Radish, Wild): 100%
pest or weed control at 250 g/ha (wild radish; 250 g ai/ha, scale 0 to 100 (0 no effect, 100 complete control), read-out: Plant response rating, Radish, Wild): 100%
pest or weed control at 16 g/ha (windgrass; 16 g ai/ha, scale 0-100, read-out: Plant response rating, Windgrass): 5%
pest or weed control at 31 g/ha (windgrass; 31 g ai/ha, scale 0 to 100 (0 no effect, 100 complete control), read-out: Plant response rating, Windgrass): 10%
pest or weed control at 62 g/ha (windgrass; 62 g ai/ha, scale 0 to 100 (0 no effect, 100 complete control), read-out: Plant response rating, Windgrass): 10%
pest or weed control at 125 g/ha (windgrass; 125 g ai/ha, scale 0 to 100 (0 no effect, 100 complete control), read-out: Plant response rating, Windgrass): 10%
pest or weed control at 250 g/ha (windgrass; 250 g ai/ha, scale 0 to 100 (0 no effect, 100 complete control), read-out: Plant response rating, Windgrass): 10%
pest or weed control at 16 g/ha (chamomile; 16 g ai/ha, scale 0 (no effect) to 100 (complete control), read-out: Plant response rating, Chamomile): 5%
pest or weed control at 31 g/ha (chamomile; 31 g ai/ha, scale 0-100, read-out: Plant response rating, Chamomile): 5%
pest or weed control at 125 g/ha (chamomile; 125 g ai/ha, scale 0-100, read-out: Plant response rating, Chamomile): 50%
pest or weed control at 250 g/ha (chamomile; 250 g ai/ha, scale 0-100, read-out: Plant response rating, Chamomile): 55%
plant injury at 16 g/ha (oilseed rape; 16 g ai/ha, scale 0 (no effect) to 100 (complete control), read-out: Plant response rating, Oilseed Rape): 40%
plant injury at 31 g/ha (oilseed rape; 31 g ai/ha, scale 0-100, read-out: Plant response rating, Oilseed Rape): 30%
plant injury at 62 g/ha (oilseed rape; 62 g ai/ha, scale 0-100, read-out: Plant response rating, Oilseed Rape): 100%
plant injury at 125 g/ha (oilseed rape; 125 g ai/ha, scale 0-100, read-out: Plant response rating, Oilseed Rape): 100%
plant injury at 250 g/ha (oilseed rape; 250 g ai/ha, scale 0-100, read-out: Plant response rating, Oilseed Rape): 100%
